# Data as given in PubChem BioAssay (NCI).
#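 The compound was tested at five concentrations on cells cultured in 96-well plates, with a 48-hour exposure period. The concentration for full growth arrest is given as TGI.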
# Assays:
# Experiment in all cases: NCI anticancer screen, dose series, 48 h
# SNB-75 CNS = tested on: SNB-75 CNS
# SK-OV-3 ovarian = tested on: SK-OV-3 ovarian
# EKVX NSCLC = tested on: EKVX NSCLC
# OVCAR-3 ovarian = tested on: OVCAR-3 ovarian
# XF 498 CNS = tested on: XF 498 CNS
# TK-10 renal = tested on: TK-10 renal
# SNB-19 CNS = tested on: SNB-19 CNS
# OVCAR-4 ovarian = tested on: OVCAR-4 ovarian
# HOP-92 NSCLC = tested on: HOP-92 NSCLC
# SF-295 CNS = tested on: SF-295 CNS
# NCI-H226 lung = tested on: NCI-H226 lung
# HCC-2998 colon = tested on: HCC-2998 colon
# DMS 273 small cell lung = tested on: DMS 273 small cell lung
# SK-MEL-28 melanoma = tested on: SK-MEL-28 melanoma
# NCI-H522 lung = tested on: NCI-H522 lung
# UACC-62 melanoma = tested on: UACC-62 melanoma
# CCRF-CEM leukemia = tested on: CCRF-CEM leukemia
# COLO 205 colon = tested on: COLO 205 colon
# HT29 colon = tested on: HT29 colon
# K-562 leukemia = tested on: K-562 leukemia
# SK-MEL-2 melanoma = tested on: SK-MEL-2 melanoma
# ACHN renal = tested on: ACHN renal
# SK-MEL-5 melanoma = tested on: SK-MEL-5 melanoma
# IGROV1 ovarian = tested on: IGROV1 ovarian
# HOP-62 NSCLC = tested on: HOP-62 NSCLC
# SF-539 CNS = tested on: SF-539 CNS
# KM12 colon = tested on: KM12 colon
# KM20L2 colon = tested on: KM20L2 colon
# LOX IMVI melanoma = tested on: LOX IMVI melanoma
# A549 NSCLC = tested on: A549 NSCLC
# M19-MEL melanoma = tested on: M19-MEL melanoma
# SW-620 colon = tested on: SW-620 colon
# HCT-116 colon = tested on: HCT-116 colon
# UACC-257 melanoma = tested on: UACC-257 melanoma
# SR leukemia = tested on: SR leukemia
# SNB-78 CNS = tested on: SNB-78 CNS
# LXFL 529 NSCLC = tested on: LXFL 529 NSCLC
# CAKI-1 renal = tested on: CAKI-1 renal
# UO-31 renal = tested on: UO-31 renal
# SN12C renal = tested on: SN12C renal
# RXF-631 renal = tested on: RXF-631 renal
# RPMI-8226 leukemia = tested on: RPMI-8226 leukemia
# A498 renal = tested on: A498 renal
# HL-60(TB) leukemia = tested on: HL-60(TB) leukemia
# M14 melanoma = tested on: M14 melanoma
# DLD-1 colon = tested on: DLD-1 colon
# MOLT-4 leukemia = tested on: MOLT-4 leukemia
# NCI-H23 lung = tested on: NCI-H23 lung
# SF-268 CNS = tested on: SF-268 CNS
# DMS 114 small cell lung = tested on: DMS 114 small cell lung
# OVCAR-5 ovarian = tested on: OVCAR-5 ovarian
# NCI-H460 lung = tested on: NCI-H460 lung
# RXF 393 renal = tested on: RXF 393 renal
# U251 CNS = tested on: U251 CNS
# MALME-3M melanoma = tested on: MALME-3M melanoma
# HCT-15 colon = tested on: HCT-15 colon
# OVCAR-8 ovarian = tested on: OVCAR-8 ovarian
# HOP-18 NSCLC = tested on: HOP-18 NSCLC
# 786-0 renal = tested on: 786-0 renal
compound,measurement,setting,value
O=[N+]([O-])c1nc(-c2ccccn2)[nH]c1[N+](=O)[O-],TGI,SNB-75 CNS,> 100 µM
same,TGI,SK-OV-3 ovarian,> 100 µM
same,TGI,EKVX NSCLC,> 100 µM
same,TGI,OVCAR-3 ovarian,> 100 µM
same,TGI,XF 498 CNS,> 100 µM
same,TGI,TK-10 renal,> 100 µM
same,TGI,SNB-19 CNS,> 100 µM
same,TGI,OVCAR-4 ovarian,> 100 µM
same,TGI,HOP-92 NSCLC,> 100 µM
same,TGI,SF-295 CNS,> 100 µM
same,TGI,NCI-H226 lung,> 100 µM
same,TGI,HCC-2998 colon,> 100 µM
same,TGI,DMS 273 small cell lung,> 100 µM
same,TGI,SK-MEL-28 melanoma,> 100 µM
same,TGI,NCI-H522 lung,37.1 µM
same,TGI,UACC-62 melanoma,85.7 µM
same,TGI,CCRF-CEM leukemia,> 100 µM
same,TGI,COLO 205 colon,> 100 µM
same,TGI,HT29 colon,> 100 µM
same,TGI,K-562 leukemia,> 100 µM
same,TGI,SK-MEL-2 melanoma,> 100 µM
same,TGI,ACHN renal,> 100 µM
same,TGI,SK-MEL-5 melanoma,> 100 µM
same,TGI,IGROV1 ovarian,> 100 µM
same,TGI,HOP-62 NSCLC,> 100 µM
same,TGI,SF-539 CNS,> 100 µM
same,TGI,KM12 colon,> 100 µM
same,TGI,KM20L2 colon,> 100 µM
same,TGI,LOX IMVI melanoma,> 100 µM
same,TGI,A549 NSCLC,> 100 µM
same,TGI,M19-MEL melanoma,> 100 µM
same,TGI,SW-620 colon,> 100 µM
same,TGI,HCT-116 colon,49 µM
same,TGI,UACC-257 melanoma,> 100 µM
same,TGI,SR leukemia,> 100 µM
same,TGI,SNB-78 CNS,> 100 µM
same,TGI,LXFL 529 NSCLC,> 100 µM
same,TGI,CAKI-1 renal,> 100 µM
same,TGI,UO-31 renal,> 100 µM
same,TGI,SN12C renal,> 100 µM
same,TGI,RXF-631 renal,> 100 µM
same,TGI,RPMI-8226 leukemia,> 100 µM
same,TGI,A498 renal,> 100 µM
same,TGI,HL-60(TB) leukemia,> 100 µM
same,TGI,M14 melanoma,> 100 µM
same,TGI,DLD-1 colon,> 100 µM
same,TGI,MOLT-4 leukemia,> 100 µM
same,TGI,NCI-H23 lung,> 100 µM
same,TGI,SF-268 CNS,> 100 µM
same,TGI,DMS 114 small cell lung,38.9 µM
same,TGI,OVCAR-5 ovarian,> 100 µM
same,TGI,NCI-H460 lung,> 100 µM
same,TGI,RXF 393 renal,> 100 µM
same,TGI,U251 CNS,> 100 µM
same,TGI,MALME-3M melanoma,> 100 µM
CN1C(=O)CC(c2cccc(C3CC(=O)N(C)C3=O)n2)C1=O (centres undefined),TGI,SNB-75 CNS,> 100 µM
same,TGI,SK-OV-3 ovarian,> 100 µM
same,TGI,EKVX NSCLC,> 100 µM
same,TGI,OVCAR-3 ovarian,> 100 µM
same,TGI,TK-10 renal,> 100 µM
same,TGI,SNB-19 CNS,> 100 µM
same,TGI,OVCAR-4 ovarian,> 100 µM
same,TGI,HOP-92 NSCLC,> 100 µM
same,TGI,SF-295 CNS,> 100 µM
same,TGI,NCI-H226 lung,> 100 µM
same,TGI,HCC-2998 colon,> 100 µM
same,TGI,DMS 273 small cell lung,> 100 µM
same,TGI,SK-MEL-28 melanoma,> 100 µM
same,TGI,NCI-H522 lung,> 100 µM
same,TGI,UACC-62 melanoma,> 100 µM
same,TGI,CCRF-CEM leukemia,> 100 µM
same,TGI,COLO 205 colon,> 100 µM
same,TGI,HT29 colon,> 100 µM
same,TGI,K-562 leukemia,> 100 µM
same,TGI,SK-MEL-2 melanoma,> 100 µM
same,TGI,HCT-15 colon,> 100 µM
same,TGI,ACHN renal,> 100 µM
same,TGI,SK-MEL-5 melanoma,> 100 µM
same,TGI,IGROV1 ovarian,> 100 µM
same,TGI,HOP-62 NSCLC,> 100 µM
same,TGI,SF-539 CNS,> 100 µM
same,TGI,KM12 colon,> 100 µM
same,TGI,KM20L2 colon,> 100 µM
same,TGI,LOX IMVI melanoma,> 100 µM
same,TGI,OVCAR-8 ovarian,> 100 µM
same,TGI,A549 NSCLC,> 100 µM
same,TGI,HOP-18 NSCLC,> 100 µM
same,TGI,M19-MEL melanoma,> 100 µM
same,TGI,SW-620 colon,> 100 µM
same,TGI,HCT-116 colon,> 100 µM
same,TGI,UACC-257 melanoma,> 100 µM
same,TGI,SR leukemia,> 100 µM
same,TGI,SNB-78 CNS,> 100 µM
same,TGI,LXFL 529 NSCLC,> 100 µM
same,TGI,CAKI-1 renal,> 100 µM
same,TGI,UO-31 renal,> 100 µM
same,TGI,SN12C renal,> 100 µM
same,TGI,786-0 renal,> 100 µM
same,TGI,A498 renal,> 100 µM
same,TGI,HL-60(TB) leukemia,> 100 µM
same,TGI,M14 melanoma,> 100 µM
same,TGI,DLD-1 colon,> 100 µM
same,TGI,MOLT-4 leukemia,> 100 µM
same,TGI,NCI-H23 lung,> 100 µM
same,TGI,SF-268 CNS,> 100 µM
same,TGI,DMS 114 small cell lung,> 100 µM
same,TGI,OVCAR-5 ovarian,> 100 µM
same,TGI,NCI-H460 lung,> 100 µM
same,TGI,RXF 393 renal,> 100 µM
same,TGI,U251 CNS,> 100 µM
same,TGI,MALME-3M melanoma,> 100 µM
CC(C)(C)OC1=C(OC(C)(C)C)C(O)(c2ccccc2)C1=O (centres undefined),TGI,SNB-75 CNS,> 100 µM
same,TGI,SK-OV-3 ovarian,> 100 µM
same,TGI,EKVX NSCLC,> 100 µM
same,TGI,OVCAR-3 ovarian,> 100 µM
same,TGI,TK-10 renal,> 100 µM
same,TGI,SNB-19 CNS,> 100 µM
same,TGI,OVCAR-4 ovarian,> 100 µM
same,TGI,SF-295 CNS,> 100 µM
same,TGI,HCC-2998 colon,> 100 µM
same,TGI,DMS 273 small cell lung,> 100 µM
same,TGI,SK-MEL-28 melanoma,> 100 µM
same,TGI,UACC-62 melanoma,> 100 µM
same,TGI,CCRF-CEM leukemia,> 100 µM
same,TGI,COLO 205 colon,> 100 µM
same,TGI,HT29 colon,> 100 µM
same,TGI,K-562 leukemia,> 100 µM
same,TGI,HCT-15 colon,> 100 µM
same,TGI,ACHN renal,> 100 µM
same,TGI,SK-MEL-5 melanoma,> 100 µM
same,TGI,IGROV1 ovarian,> 100 µM
same,TGI,SF-539 CNS,> 100 µM
same,TGI,KM12 colon,> 100 µM
same,TGI,LOX IMVI melanoma,> 100 µM
same,TGI,OVCAR-8 ovarian,> 100 µM
same,TGI,A549 NSCLC,> 100 µM
same,TGI,HOP-18 NSCLC,> 100 µM
same,TGI,M19-MEL melanoma,> 100 µM
same,TGI,SW-620 colon,> 100 µM
same,TGI,SNB-78 CNS,> 100 µM
same,TGI,LXFL 529 NSCLC,> 100 µM
same,TGI,UO-31 renal,> 100 µM
same,TGI,SN12C renal,> 100 µM
same,TGI,RXF-631 renal,> 100 µM
same,TGI,RPMI-8226 leukemia,> 100 µM
same,TGI,786-0 renal,> 100 µM
same,TGI,A498 renal,> 100 µM
same,TGI,HL-60(TB) leukemia,> 100 µM
same,TGI,M14 melanoma,> 100 µM
same,TGI,DLD-1 colon,> 100 µM
same,TGI,MOLT-4 leukemia,> 100 µM
same,TGI,NCI-H23 lung,> 100 µM
same,TGI,SF-268 CNS,> 100 µM
same,TGI,DMS 114 small cell lung,> 100 µM
same,TGI,OVCAR-5 ovarian,> 100 µM
same,TGI,NCI-H460 lung,> 100 µM
same,TGI,RXF 393 renal,> 100 µM
same,TGI,U251 CNS,> 100 µM
same,TGI,MALME-3M melanoma,> 100 µM
